For data set [1] the following is noted: cited from earlier work.
The nature of data set [2]: Alisertib pharmacokinetics in plasma. It counts as in vivo, human. The settings on record: Schedule I, vorinostat 200 mg, alisertib 30 mg, day 7, N=1.
Data set [3] has as its system patients with relapsed/refractory lymphoid malignancies. The experiment in a line: Phase 1 safety and tolerability: DLTs, MTD/RP2D, adverse events. It counts as in vivo, human.
For data set [4] the following is noted: human, in vivo.
The conditions of data set [5]: previously published data; cited from earlier work.
In the next data set the test system is follicular lymphoma. The settings on record: single agent, two phase 2 studies; cited from earlier work.
Another data set is described as follows: clinical. The note with it: human, in vivo; for AUC: AUC0-tau; for half-life: t½.

Read-outs that look alike come from different tables or passages of the source.

Data on two compounds can be found in article PMC6982547 (Leukemia & lymphoma, 2019).

Usually half-life stands for the time needed for the level to fall by half in the phase considered. With `COc1cc(Nc2ncc3c(n2)-c2ccc(Cl)cc2C(c2c(F)cccc2OC)=NC3)ccc1C(=O)O` [Alisertib], the half-life in data set [1] (previous reports) was 14.9 h. The apparent clearance in data set [1] (previously published population estimate) is on record as 4.25 L/h. This compound also gave a Cl/F in data set [2] of 1.68 L/h. Besides, the “MTD of the combination, alisertib dose” value in data set [3] (BID, with 200 mg vorinostat BID, intermittent dosing Schedule II) is given as 20 mg. The “recommended phase 2 dose (RP2D) of the combination, alisertib dose” value in data set [3] (bid, intermittent schedule) came out at 20 mg.

One may read the clearance as the volume of plasma or blood freed of the substance per unit of time. One may read the AUC as concentration integrated over time. Lower therefore signals less exposure. Usually Cmax stands for the maximum level reached in the sampled fluid or tissue. As a reminder, the Tmax is the time at which the peak concentration occurs. Turning to `O=C(CCCCCCC(=O)Nc1ccccc1)NO` [Vorinostat], in data set [4] (30 mg), the t½ is 2.38 (0.97) h. For the same compound, the AUC0-tau in data set [4] (200 mg) was 1.10 (0.44) μg/mL•h. The clearance in data set [5] is 271 L/h. Besides, in the data set with follicular lymphoma, the overall response rate is listed as 47-49%. In addition, the AUC was 1030 ng·h/mL in “clinical” (20 mg), 1850 ng·h/mL in the data set “clinical” (30 mg), 956 ng·h/mL in “clinical” (40 mg) and 1030 ng·h/mL in the data set “clinical” (200 mg). In addition, the Cmax in “clinical” (20 mg) came out at 318 ng/mL; in “clinical” (30 mg), 560 ng/mL; in the data set “clinical” (40 mg) it was 335 ng/mL; in “clinical” (200 mg) it was 391 ng/mL. The results for the Tmax in the data set “clinical” (20 mg), in “clinical” (30 mg) and in “clinical” (40 mg) were 2.25 h, 2.42 h and 0.98 h, respectively. Moreover, the half-life is 2.16 h in “clinical” (20 mg), 2.31 h in “clinical” (40 mg), 2.19 h in “clinical” (200 mg) and 2.3 h in “clinical”. For the same compound, the “MTD of the combination, vorinostat dose” value in data set [3] (BID, with 20 mg alisertib BID, intermittent dosing Schedule II) came out at 200 mg. In addition, the “recommended phase 2 dose (RP2D) of the combination, vorinostat dose” value in data set [3] (bid, intermittent schedule) was determined as 200 mg.
